Source: patent US12240844B2 (Voronoi, Inc., priority 2019, dated 2025)

Key:
MYLK = molecular target: T1, MYLK (Homo sapiens, UniProt Q15746); test: scanMAX Kinase panel (DiscoverX), % control; assay type: binding; conditions: <35% = active
T1 construct: purchased DiscoverX
Description: (§1) Specifically, for Examples 162, 160, 105, 217, 205, 96, 207, 184, 206, 221, 238, and 237 selected among the example compounds of the present invention, it was decided to measure enzyme (kinase) selectivity by DiscoverX, and the experiment was conducted using a panel for scanMAX™ Kinase analysis. At this time, the concentration of the drug treated with the enzyme was 1 uM in DMSO, the control percentage (% control) was determined in the same way as in Equation 1 below, and the results were shown in Table 6 below. [formula] Here, the positive control refers to a compound showing a control percentage of 0%, and the negative control is DMSO, indicating a control percentage of 100%. Also, in the enzyme selectivity of the present invention, if the control percentage for each enzyme was <35% (i.e., less than 35%), it was determined to have activity against the relevant enzyme.

CLK1 = molecular target: T2, CLK1 (Homo sapiens, UniProt P49759); test: scanMAX Kinase panel (DiscoverX), % control; assay type: binding; conditions: <35% = active
T2 construct: purchased DiscoverX
T2 sequence (P49759 whole entry): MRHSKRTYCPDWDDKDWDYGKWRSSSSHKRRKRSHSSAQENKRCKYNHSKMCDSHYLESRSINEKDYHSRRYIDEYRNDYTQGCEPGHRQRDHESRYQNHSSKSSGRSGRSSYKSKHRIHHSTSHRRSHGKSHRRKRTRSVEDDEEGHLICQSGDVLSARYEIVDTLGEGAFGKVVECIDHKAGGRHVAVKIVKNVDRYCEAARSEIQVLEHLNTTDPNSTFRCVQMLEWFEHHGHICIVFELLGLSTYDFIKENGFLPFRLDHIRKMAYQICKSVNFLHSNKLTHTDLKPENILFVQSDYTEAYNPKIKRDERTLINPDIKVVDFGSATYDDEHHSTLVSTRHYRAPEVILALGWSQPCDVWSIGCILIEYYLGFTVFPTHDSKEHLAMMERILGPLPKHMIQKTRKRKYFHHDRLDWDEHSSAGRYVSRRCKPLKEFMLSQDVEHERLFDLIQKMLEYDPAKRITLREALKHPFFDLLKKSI
Description: as §1

ALK (C1156Y) = molecular target: T3, ALK (C1156Y) (Homo sapiens, UniProt Q9UM73, C1156Y); test: scanMAX Kinase panel (DiscoverX), % control; assay type: binding; conditions: <35% = active
T3 construct: purchased DiscoverX
T3 sequence (Q9UM73 19-1620 C1156Y): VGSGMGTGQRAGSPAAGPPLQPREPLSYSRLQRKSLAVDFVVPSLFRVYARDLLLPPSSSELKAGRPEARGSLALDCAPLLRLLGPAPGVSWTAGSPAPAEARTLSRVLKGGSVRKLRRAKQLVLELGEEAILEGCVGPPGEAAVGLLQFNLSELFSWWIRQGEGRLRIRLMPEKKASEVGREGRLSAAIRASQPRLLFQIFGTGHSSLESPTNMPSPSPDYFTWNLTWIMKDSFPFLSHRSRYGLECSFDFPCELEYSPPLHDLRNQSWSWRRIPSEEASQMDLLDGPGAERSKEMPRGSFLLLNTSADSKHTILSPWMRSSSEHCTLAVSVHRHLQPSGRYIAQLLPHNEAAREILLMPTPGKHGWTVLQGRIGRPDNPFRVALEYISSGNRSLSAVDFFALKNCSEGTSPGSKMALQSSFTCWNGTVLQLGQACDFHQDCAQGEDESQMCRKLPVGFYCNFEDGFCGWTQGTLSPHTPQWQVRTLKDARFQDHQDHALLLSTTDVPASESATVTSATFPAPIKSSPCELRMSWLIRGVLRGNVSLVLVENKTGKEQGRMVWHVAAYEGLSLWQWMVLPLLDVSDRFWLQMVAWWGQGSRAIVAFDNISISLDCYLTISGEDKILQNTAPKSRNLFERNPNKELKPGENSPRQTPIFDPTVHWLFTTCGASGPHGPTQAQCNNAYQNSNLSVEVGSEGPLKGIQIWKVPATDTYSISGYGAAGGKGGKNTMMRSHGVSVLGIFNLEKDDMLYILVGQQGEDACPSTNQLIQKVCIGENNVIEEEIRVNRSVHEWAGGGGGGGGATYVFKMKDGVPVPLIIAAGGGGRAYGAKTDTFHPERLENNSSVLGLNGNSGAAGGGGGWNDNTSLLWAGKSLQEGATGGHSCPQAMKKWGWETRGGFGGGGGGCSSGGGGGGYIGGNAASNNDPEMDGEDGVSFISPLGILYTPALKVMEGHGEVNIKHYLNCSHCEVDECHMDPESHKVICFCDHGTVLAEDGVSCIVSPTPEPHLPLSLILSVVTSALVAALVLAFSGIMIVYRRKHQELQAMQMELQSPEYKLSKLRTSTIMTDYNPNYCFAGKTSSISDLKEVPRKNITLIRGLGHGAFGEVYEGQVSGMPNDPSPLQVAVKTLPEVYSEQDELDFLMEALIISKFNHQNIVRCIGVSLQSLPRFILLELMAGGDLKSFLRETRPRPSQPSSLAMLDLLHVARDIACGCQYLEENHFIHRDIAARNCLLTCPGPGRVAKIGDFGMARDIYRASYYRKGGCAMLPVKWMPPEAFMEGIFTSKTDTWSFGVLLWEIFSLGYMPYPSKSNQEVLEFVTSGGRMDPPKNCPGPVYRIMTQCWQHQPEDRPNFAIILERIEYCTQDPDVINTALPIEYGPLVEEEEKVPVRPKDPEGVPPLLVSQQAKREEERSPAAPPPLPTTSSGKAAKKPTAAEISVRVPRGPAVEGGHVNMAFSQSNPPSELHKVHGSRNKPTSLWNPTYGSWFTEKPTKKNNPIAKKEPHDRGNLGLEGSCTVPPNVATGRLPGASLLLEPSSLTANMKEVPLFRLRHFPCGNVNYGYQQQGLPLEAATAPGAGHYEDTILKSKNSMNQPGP
Description: as §1

CLK4 = molecular target: T4, CLK4 (Homo sapiens, UniProt Q9HAZ1); test: scanMAX Kinase panel (DiscoverX), % control; assay type: binding; conditions: <35% = active
T4 construct: purchased DiscoverX
T4 sequence (Q9HAZ1 whole entry): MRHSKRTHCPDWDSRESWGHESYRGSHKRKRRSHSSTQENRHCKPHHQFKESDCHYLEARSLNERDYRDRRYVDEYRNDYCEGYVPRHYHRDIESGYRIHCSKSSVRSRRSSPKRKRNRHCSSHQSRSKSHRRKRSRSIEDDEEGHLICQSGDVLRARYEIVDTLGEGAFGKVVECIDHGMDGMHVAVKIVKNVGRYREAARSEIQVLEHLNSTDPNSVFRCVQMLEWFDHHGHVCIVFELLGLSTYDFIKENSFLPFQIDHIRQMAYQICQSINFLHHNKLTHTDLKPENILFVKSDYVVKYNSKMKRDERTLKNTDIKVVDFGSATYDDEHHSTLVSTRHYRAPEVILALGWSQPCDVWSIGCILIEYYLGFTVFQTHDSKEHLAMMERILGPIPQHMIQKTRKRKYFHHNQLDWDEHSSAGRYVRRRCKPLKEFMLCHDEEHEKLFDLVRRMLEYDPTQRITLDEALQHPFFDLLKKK
Description: as §1

DYRK1A = molecular target: T5, DYRK1A (Homo sapiens, UniProt Q13627); test: scanMAX Kinase panel (DiscoverX), % control; assay type: binding; conditions: <35% = active
T5 construct: purchased DiscoverX
Description: as §1

DYRK1B = molecular target: T6, DYRK1B (Homo sapiens, UniProt Q9Y463); test: scanMAX Kinase panel (DiscoverX), % control; assay type: binding; conditions: <35% = active
T6 construct: purchased DiscoverX
Description: as §1

CLK3 = molecular target: T7, CLK3 (Homo sapiens, UniProt P49761); test: scanMAX Kinase panel (DiscoverX), % control; assay type: binding; conditions: <35% = active
T7 construct: purchased DiscoverX
T7 sequence (P49761 whole entry): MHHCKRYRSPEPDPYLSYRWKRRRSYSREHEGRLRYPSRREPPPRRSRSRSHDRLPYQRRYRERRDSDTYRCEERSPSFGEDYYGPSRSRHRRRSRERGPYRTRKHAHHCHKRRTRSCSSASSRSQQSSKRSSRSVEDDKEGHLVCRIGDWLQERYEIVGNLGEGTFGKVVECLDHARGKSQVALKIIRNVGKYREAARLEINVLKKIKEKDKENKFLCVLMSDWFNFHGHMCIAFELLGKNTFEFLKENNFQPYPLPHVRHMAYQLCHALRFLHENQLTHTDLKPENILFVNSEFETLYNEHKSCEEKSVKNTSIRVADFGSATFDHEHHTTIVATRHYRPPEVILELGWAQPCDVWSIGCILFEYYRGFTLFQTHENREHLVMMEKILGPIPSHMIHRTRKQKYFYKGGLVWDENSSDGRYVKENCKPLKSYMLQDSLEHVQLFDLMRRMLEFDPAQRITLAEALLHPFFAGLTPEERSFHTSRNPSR
Description: as §1

ALK = molecular target: T8, ALK (Homo sapiens, UniProt Q9UM73); test: scanMAX Kinase panel (DiscoverX), % control; assay type: binding; conditions: <35% = active
T8 construct: purchased DiscoverX
T8 sequence (Q9UM73 19-1620): as the sequence (Q9UM73 19-1620 C1156Y) above, with Y1138C counted along it
Description: as §1

[1] = molecular target: T9, LRRK2, LRRK2 (G2019S), DYRK1, CLK1 and TTK kinases (Homo sapiens, UniProt Q13627); test: Enzyme IC50 by Kinase HotSpot service (Reaction Biology Corporation), values marked with *; assay type: biochemical; conditions: DYRK1, ATP 10 uM
T9 construct: other: DYRK1; Kinase HotSpot service (Reaction Biology), ATP 10 uM
Method in brief: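 Radiometric-service kinase assays (Reaction Biology HotSpot protocol) run at 10 uM ATP under uniform conditions. Compounds tested as 3-fold dilution series from a top concentration of […] to give IC50.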

LRRK2 (G2019S) = LRRK2 (G2019S) (Homo sapiens, UniProt Q5S007, G2019S); test: scanMAX Kinase panel (DiscoverX), % control; assay type: binding; set-up: purchased DiscoverX; conditions: <35% = active
Description: as §1

TTK = molecular target: T10, TTK (Homo sapiens, UniProt P33981); test: scanMAX Kinase panel (DiscoverX), % control; assay type: binding; set-up: purchased DiscoverX; conditions: <35% = active
T10 sequence (P33981 1-857): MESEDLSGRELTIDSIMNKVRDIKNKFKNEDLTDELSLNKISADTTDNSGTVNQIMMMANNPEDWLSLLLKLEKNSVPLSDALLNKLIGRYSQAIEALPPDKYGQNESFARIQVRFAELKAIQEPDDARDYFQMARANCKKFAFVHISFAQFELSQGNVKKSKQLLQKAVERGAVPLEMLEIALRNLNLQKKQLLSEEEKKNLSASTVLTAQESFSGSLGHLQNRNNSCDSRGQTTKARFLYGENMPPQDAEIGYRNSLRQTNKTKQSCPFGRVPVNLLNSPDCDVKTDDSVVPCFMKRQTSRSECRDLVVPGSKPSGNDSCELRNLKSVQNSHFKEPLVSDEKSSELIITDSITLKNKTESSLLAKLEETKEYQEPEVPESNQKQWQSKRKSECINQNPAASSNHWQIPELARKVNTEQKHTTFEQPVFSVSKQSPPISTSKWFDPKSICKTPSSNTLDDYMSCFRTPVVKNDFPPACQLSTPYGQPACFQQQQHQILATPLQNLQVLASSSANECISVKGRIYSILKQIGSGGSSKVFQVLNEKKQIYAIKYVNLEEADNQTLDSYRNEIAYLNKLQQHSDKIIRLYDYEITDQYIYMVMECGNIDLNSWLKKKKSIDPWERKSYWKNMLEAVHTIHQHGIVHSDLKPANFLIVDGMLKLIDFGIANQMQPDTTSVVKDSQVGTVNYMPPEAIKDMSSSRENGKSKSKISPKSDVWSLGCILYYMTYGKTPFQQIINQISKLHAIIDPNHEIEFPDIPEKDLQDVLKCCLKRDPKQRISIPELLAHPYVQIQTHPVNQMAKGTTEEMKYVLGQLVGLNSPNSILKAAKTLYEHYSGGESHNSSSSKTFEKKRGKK
Description: as §1

LRRK2 = LRRK2 (Homo sapiens, UniProt Q5S007); test: scanMAX Kinase panel (DiscoverX), % control; assay type: binding; set-up: purchased DiscoverX; conditions: <35% = active
Description: as §1

T1 sequence (Q15746 whole entry): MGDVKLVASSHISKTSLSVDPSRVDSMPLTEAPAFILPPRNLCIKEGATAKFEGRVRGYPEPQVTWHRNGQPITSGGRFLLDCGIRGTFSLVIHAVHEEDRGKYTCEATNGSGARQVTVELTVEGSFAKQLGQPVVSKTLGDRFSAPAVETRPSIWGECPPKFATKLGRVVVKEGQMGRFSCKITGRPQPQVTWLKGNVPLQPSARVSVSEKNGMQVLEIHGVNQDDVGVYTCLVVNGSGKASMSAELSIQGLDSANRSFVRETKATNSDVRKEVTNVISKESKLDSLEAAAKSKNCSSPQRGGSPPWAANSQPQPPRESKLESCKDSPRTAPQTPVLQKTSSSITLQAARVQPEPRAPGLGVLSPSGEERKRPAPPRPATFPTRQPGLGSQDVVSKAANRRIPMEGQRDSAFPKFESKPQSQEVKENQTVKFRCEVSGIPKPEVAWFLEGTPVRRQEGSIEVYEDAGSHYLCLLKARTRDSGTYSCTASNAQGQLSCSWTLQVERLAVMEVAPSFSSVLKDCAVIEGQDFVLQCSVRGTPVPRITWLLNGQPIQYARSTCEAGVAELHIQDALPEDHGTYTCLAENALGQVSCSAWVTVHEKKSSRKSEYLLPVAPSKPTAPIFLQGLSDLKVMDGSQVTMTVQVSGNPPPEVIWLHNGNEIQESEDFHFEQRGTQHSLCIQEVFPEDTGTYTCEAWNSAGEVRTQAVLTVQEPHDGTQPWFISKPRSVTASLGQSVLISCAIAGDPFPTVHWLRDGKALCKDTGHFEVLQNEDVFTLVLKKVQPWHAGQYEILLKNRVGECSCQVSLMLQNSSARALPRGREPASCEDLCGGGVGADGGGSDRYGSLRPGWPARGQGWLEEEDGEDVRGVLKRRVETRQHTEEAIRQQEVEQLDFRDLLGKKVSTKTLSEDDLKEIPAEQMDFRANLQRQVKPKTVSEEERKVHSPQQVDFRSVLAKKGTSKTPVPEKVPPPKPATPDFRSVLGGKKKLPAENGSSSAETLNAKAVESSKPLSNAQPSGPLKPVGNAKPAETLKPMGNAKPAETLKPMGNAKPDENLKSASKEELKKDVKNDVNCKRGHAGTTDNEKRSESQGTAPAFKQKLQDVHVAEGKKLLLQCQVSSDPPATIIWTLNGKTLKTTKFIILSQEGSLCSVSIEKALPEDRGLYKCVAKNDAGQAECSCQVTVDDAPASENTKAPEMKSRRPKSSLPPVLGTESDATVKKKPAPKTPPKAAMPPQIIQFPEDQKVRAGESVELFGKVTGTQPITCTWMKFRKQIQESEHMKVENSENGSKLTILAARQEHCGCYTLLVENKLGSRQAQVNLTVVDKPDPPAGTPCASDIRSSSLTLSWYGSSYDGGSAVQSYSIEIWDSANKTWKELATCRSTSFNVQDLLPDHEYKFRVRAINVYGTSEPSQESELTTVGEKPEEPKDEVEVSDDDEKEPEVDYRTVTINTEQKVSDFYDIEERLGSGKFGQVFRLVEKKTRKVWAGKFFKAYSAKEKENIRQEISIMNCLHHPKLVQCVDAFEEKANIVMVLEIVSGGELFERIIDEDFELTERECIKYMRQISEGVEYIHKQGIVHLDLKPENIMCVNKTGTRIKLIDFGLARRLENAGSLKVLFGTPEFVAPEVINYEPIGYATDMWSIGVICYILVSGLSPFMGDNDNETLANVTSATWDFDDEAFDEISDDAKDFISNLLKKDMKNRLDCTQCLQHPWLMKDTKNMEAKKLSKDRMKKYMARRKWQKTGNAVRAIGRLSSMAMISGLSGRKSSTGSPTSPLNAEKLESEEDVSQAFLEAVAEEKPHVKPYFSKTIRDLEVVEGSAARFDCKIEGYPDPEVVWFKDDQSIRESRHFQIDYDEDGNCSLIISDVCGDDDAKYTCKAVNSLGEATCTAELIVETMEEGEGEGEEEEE

remaining binding at 1 µM (MYLK) [%]	remaining binding at 1 µM (CLK1) [%]	remaining binding at 1 µM (ALK (C1156Y)) [%]	remaining binding at 1 µM (CLK4) [%]	remaining binding at 1 µM (DYRK1A) [%]	remaining binding at 1 µM (DYRK1B) [%]	remaining binding at 1 µM (CLK3) [%]	remaining binding at 1 µM (ALK) [%]	IC50 [1] [nM]	remaining binding at 1 µM (LRRK2 (G2019S)) [%]	remaining binding at 1 µM (TTK) [%]	remaining binding at 1 µM (LRRK2) [%]	Structure (SMILES)
30	7.5	12	0.25	5.1	0.45	60	17	< 100	5.5	4.5	14	O=C(c1ccc(Nc2cc(C3CC3)c3c(C(F)(F)F)c[nH]c3n2)c2c1OCCO2)N1CCC(N2CCOCC2)CC1 [Example 221, (8-((4-cyclopropyl-3-(trifluoromethyl)-1H-pyrrolo[2,3-b]pyridin-6-yl)amino)-2,3-dihydrobenzo [b] [1,4]dioxin-5-yl)(4-morpholinopiperidin-1-yl)methanone]
8	3.4	7	0.45	0.1	13	7.8	15	< 100	3.2	0.35	3.8	CNc1cc(Nc2ccc(S(=O)(=O)N3CCC(N4CCOCC4)CC3)cc2OC)nc2[nH]cc(C(F)(F)F)c12 [Example 184, N^6-(2-methoxy-4-((4-morpholinopiperidin-1-yl)sulfonyl)phenyl)-N^4-methyl-3-(trifluoromethyl)-1H-pyrrolo[2,3-b]pyridine-4,6-diamine]
15	3.6	9.7	0.55	2.2	1.4	58	14	< 100	31	3.5	36	O=C(c1ccc(Nc2cc(C3CC3)c3c(C(F)(F)F)c[nH]c3n2)c2c1CCO2)N1CC[C@H](N2CCOCC2)C1 [Example 237, (S)-(7-((4-cyclopropyl-3-(trifluoromethyl)-1H-pyrrolo[2,3-b]pyridin-6-yl)amino)-2,3-dihydrobenzofuran-4-yl)(3-morpholinopyrrolidin-1-yl)methanone]
